# Measurements published in PMC4598023 (PLoS ONE, 2015).
# Bridges are numbered along the chain shown (N, C = ends). Where no end group is shown, it is not given here.
# Test system: MCF–7 cells
# Assay: cAMP production in MCF–7 cells following stimulation with amylin and PEGylated amylin
# Assay type: cell-based, human
# Conditions: for cAMP: 37°C
# Protocol: The assay was conducted by the CRO Eurofins | Cerep Panlabs, using the cAMP HiRange assay kit (Cisbio, 62AM6PE). According to the company, the assay was performed in 96 well half area plates, in a total reaction volume of 20 μl/well, with a total of 3.000 cells in suspension (after optimization for optimal seeding density and format: adherent or suspension), freshly thawed. Cells were incubated at 37°C in a humidified atmosphere with 5% (v/v) CO2. […] Following the incubation, cells were lysed and the cAMP quantified by using the cAMP HiRange assay kit (Cisbio, 62AM6PE) according to the manufacturer instructions. […] After 60 minutes incubation at room temperature, fluorescence was measured (excitation at 337 nm, emission at 620 vs. 665 nm), and the cAMP concentration was determined by dividing the signal at 665 nm by that at 620 nm and comparing with the cAMP calibration curve. Buffer was used as negative control and the results were corrected accordingly. Results are expressed as mean ± standard error (n = 2) of the resulting cAMP concentrations in nM. EC50 values for the agonist-induced cAMP production was calculated by adjusting data with a logist 4 parameter function (with SigmaPlot, Jandel Sci).
# MCF–7 cells endogenously express human amylin receptor CTR1 and CTR2 [72, 73]. Stimulation of the receptor with amylin results in the production of cAMP (Fig 5).
substance,measurement,setting,value
PEGylated human amylin: human amylin monoconjugated at the N-terminal Lys1 region with 5 kDa methoxyl polyethylene glycol succinimidyl carbonate (mPEGsc5k) (KCNTATCATQRLANFLVHSSNNFGAILSSTNVGSNTY-NH2; disulfide 2-7; also: one mPEG 5 kDa (mPEGsc5k) on a Lys1 amino group),cAMP,"1.00E-05 Molar, replicate 1, 30 min",53.95 nM
same,cAMP,"1.00E-05 Molar, replicate 2, 30 min",47.73 nM
same,cAMP,"1.00E-06 Molar, replicate 1, 30 min",47.85 nM
same,cAMP,"1.00E-06 Molar, replicate 2, 30 min",54.26 nM
same,cAMP,"1.00E-07 Molar, replicate 1, 30 min",38.3 nM
same,cAMP,"1.00E-07 Molar, replicate 2, 30 min",36.06 nM
same,cAMP,"1.00E-08 Molar, replicate 1, 30 min",17.13 nM
same,cAMP,"1.00E-08 Molar, replicate 2, 30 min",22.08 nM
same,cAMP,"1.00E-09 Molar, replicate 1, 30 min",5.54 nM
same,cAMP,"1.00E-09 Molar, replicate 2, 30 min",6.29 nM
same,cAMP,"1.00E-10 Molar, replicate 1, 30 min",3.86 nM
same,cAMP,"1.00E-10 Molar, replicate 2, 30 min",4.59 nM
same,cAMP,"1.00E-11 Molar, replicate 1, 30 min",4.14 nM
same,cAMP,"1.00E-11 Molar, replicate 2, 30 min",3.71 nM
same,cAMP,"1.00E-12 Molar, replicate 1, 30 min",4.83 nM
same,cAMP,"1.00E-12 Molar, replicate 2, 30 min",5.61 nM
same,EC50,"30 min 37°C, HBSS/HEPES pH 7.4, 500 μM IBMX, cAMP HiRange kit, 4 parameter logistic fit, n = 2, done by CRO",30.8 ± 6.7 nM
